How the values were obtained:
[1] = tested on: MLL-AF6-positive ML2 leukemia cells; assay: Dose-dependent growth study, ML2 cells; format: cell-based, human; details: different doses, 3 days
Experimental: (§1) FIG. 5. Determinants of the Increased Sensitivity of MLL Leukemia Cells to IRAK Inhibition (A) IRAK4 inhibitor-specific inhibition of MLL leukemia cell proliferation. Multiple MLL leukemia and non-MLL leukemia or lymphoma cell lines were cultured with different doses of IRAK4 inhibitor for 3 days. Data are represented as mean±SD (n=3). (B) Cell growth of MLL-AF9-positive AML MM6 cells is inhibited by IRAK inhibition. Data are represented as mean±SD (n=3). […] The p value was determined with the hypergeometric test. […] (E and F) Depletion of LGALS1 (E) and LMO2 (F) results in reduced growth of MM6 cells. MM6 cells were transduced with shGFP control (GFPi) or two different lentiviral shRNA constructs. After selection with puromycin for 4 days, viable cells were seeded at 0.2 million/mL and cultured for 3 more days before cell viability counting. Data represent the mean±SD (n=3; **p<0.005, one-way ANOVA). See also FIG. 12.
(§2) Determinants of the Increased Sensitivity of MLL Leukemia Cells to IRAK Inhibition. To further determine the effectiveness of IRAK inhibition for MLL leukemia cell growth, we performed dose-dependent studies with multiple patient-derived leukemia cell lines, including MLL leukemia and non-MLL leukemia or lymphoma cells.

[2] = tested on: MLL-rearranged AML and ALL leukemia cells; assay: Dose-dependent growth study with patient-derived leukemia cell lines; format: cell-based, human; details: different doses, 3 days
Experimental: as §1, §2

REH cells = assay: REH cell proliferation (trypan blue, Vi-CELL XR); format: cell-based, human; details: 500 nM IRAK4 inhibitor
Experimental: FIG. 4. […] Viable cells were seeded at 0.2 million/mL, and they were monitored by trypan blue exclusion staining and counted using a Vi-CELL XR cell counter. Data are represented as mean±SD (n=3). […] Data are represented as mean±SD (n=3). (C) Venn diagram of deregulated genes in SEM cells by IRAK1/4 and IRAK4 inhibitors. […] (D) Venn diagram of deregulated genes in SEM and REH cells by both inhibitors. Little overlap was observed between REH and SEM cells. […] Each cluster is represented by different colors and a circle node represents each enriched term. (G) UBE2O depletion and IRAK inhibition affect a common subset of genes in SEM cells. […] Heatmaps represent Z score-normalized values. See also FIG. 11.
Stabilization of MLL through IRAK Inhibition and UBE2O Depletion Regulates a Specific Gene Regulatory Network in MLL Leukemia. To measure the consequence of stabilizing MLL in MLL leukemia cells, we determined the effects of IRAK inhibition on cell proliferation of REH (MLL-germline leukemia) and SEM (MLL-AFF1) cells. Both of these cell lines are derived from precursor B cell ALL patient blast cells, and, therefore, they have been studied when comparing non-MLL (REH) and MLL-dependent (SEM) leukemia gene expression (Guenther et al., 2008).

MLL-AF9 leukemia = assay: Murine MLL-AF9 leukemia transplantation model; format: in vivo, C57BL/6 mice; details: treatment from day 10 after transplantation; IRAK1/4 inhibitor 8 mg/kg, IRAK4 inhibitor 75 mg/kg i.p. every other day; vehicle mice all dead by 31 days
From the text: After transformation of MLL-AF9, c-Kit+ HSPCs were transplanted into lethally irradiated C57BL/6 mice with 1 3 106 transformed cells and 2 3 105 support cells. Leukemia cells from primary AML mice were isolated and transplanted into sublethally irradiated C57BL/6 mice. Drug treatments were started at day 10 or 19 after transplantation. (B) Kaplan-Meier survival curves of secondary transplanted C57BL/6 mice after vehicle and IRAK1/4 or IRAK4 inhibitor treatment at day 19 (blast phase). Vehicle or IRAK inhibitors were administered every other day by intraperitoneal injection for a total of five treatments. Leukemia was confirmed at the endpoint for each transplant mouse. […] The p values were calculated using the log rank test. […] The p values were calculated using the log rank test. […]
We further assessed the effects of the IRAK inhibitors in vivo using the murine MLL-AF9 leukemia transplantation model (FIG. 7A) (Volk et al., 2014). […]
Murine MLL-AF9 Leukemia Model. […] The mice were monitored for signs of acute leukemia for 2-3 months and euthanized when leukemia was evident (weight loss below 16.75 g, reduced mobility, malaise, palpable spleen, and hunched back). […]
Animal Treatment. […] Mice were monitored for leukemia development and leukemia was verified after the mice were sacrificed upon signs of illness (weight loss below 16.75 g, partial paralysis, malaise, palpable spleen, and hunched back).

## COc1cc2c(cc1OCCCN1CCN(C)CC1)ncc1c3ccc(C#N)cc3[nH]c21 [IRAK4 inhibitor]
[1]
  sensitivity of ML2 cells (wild-type MLL allele deleted): not sensitive
[2]
  cell growth of MLL-rearranged versus non-MLL leukemia or lymphoma cells: preferentially impeded cell growth of MLL-rearranged AML and ALL leukemia cells
REH cells
  REH cell proliferation: no detectable effect
MLL-AF9 leukemia
  mice that still did not develop MLL-AF9 leukemia as of day 55: four of nine

— patent US10059708B2, “Therapeutic targeting of the interleukin 1 receptor-associated kinase 4 (IRAK4) in leukemias characterized by rearrangements in the mixed lineage leukemia gene (MLL-r)” (Northwestern University, priority 2016, dated 2018)
